Measurements: patent US5559113A, “Imidazole compounds and their therapeutic applications” (Institut National de la Sante et de la Recherche Medicale, priority 1992, dated 1996)

Each molecule was assayed against T1, H3 receptors of the brain of the rat (Rattus norvegicus, UniProt Q9QYN8) (assay: Antagonism of the inhibition by exogenous histamine of release in rat cerebral cortex sections (central H3 receptors)). Conditions: not given.
T1 construct: This method requires rat cerebral cortex sections; from tissue; host or cells: rat cerebral cortex sections
T1 sequence (Q9QYN8 whole entry): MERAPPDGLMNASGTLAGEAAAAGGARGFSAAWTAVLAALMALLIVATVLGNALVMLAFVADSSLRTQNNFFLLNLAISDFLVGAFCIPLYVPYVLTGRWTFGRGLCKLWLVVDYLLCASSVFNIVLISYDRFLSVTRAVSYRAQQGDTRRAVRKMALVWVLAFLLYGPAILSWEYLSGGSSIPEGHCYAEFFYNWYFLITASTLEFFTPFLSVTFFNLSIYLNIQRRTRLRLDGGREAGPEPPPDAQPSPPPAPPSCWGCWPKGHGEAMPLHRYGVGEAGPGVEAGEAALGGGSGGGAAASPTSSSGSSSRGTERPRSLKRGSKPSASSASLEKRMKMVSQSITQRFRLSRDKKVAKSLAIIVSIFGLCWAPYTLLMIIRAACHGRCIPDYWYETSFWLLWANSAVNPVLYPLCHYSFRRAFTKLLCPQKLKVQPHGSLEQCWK
Assay type: cell-based
Description: This method requires rat cerebral cortex sections and has made possible the pharmacological characterization of the H3 receptors (Nature, 1987, 327, 117-123).

SMILES	Ki
Fc1ccc(CCCOCCCc2c[nH]cn2)cc1 [Example 88, 3-(4-Fluorophenyl)propyl 3-(1H-imidazol-4-yl)propyl ether]	0.007 ± 0.002 µM
Clc1ccc(CCCOCCCc2c[nH]cn2)cc1 [Example 85, 3-(4-Chlorophenyl)propyl 3-(1H-imidazol-4-yl)propyl ether]	0.013 ± 0.004 µM
CC(CC(=O)NCCCc1c[nH]cn1)c1ccccc1 (racemic) [Example 15, (R,S)-(+)-N-(3-(1H-Imidazol-4-yl)propyl)-3-phenylbutanamide]	0.035 µM
Brc1ccc(CCCOCCCc2c[nH]cn2)cc1 [Example 38, 3-(4-Bromophenyl)propyl 3-(1H-imidazol-4-yl)propyl ether]	0.015 ± 0.004 µM
c1ccc(CCCOCCCc2c[nH]cn2)cc1 [Example 45, 3-Phenylpropyl 3-(1H-imidazol-4-yl)propyl ether]	0.017 ± 0.003 µM
O=C(CCCC1CCCCC1)NCCCc1c[nH]cn1 [Example 7, N-(3-(1H-Imidazol-4-yl)propyl)-4-cyclohexylbutanamide]	0.059 µM
O=C(CCc1ccccc1)NCCCc1c[nH]cn1 [Example 2, N-(3-(1H-Imidazol-4-yl)propyl)-3-phenylpropanamide]	0.049 µM
O=C(CCCc1ccccc1)CCCc1c[nH]cn1 [Example 49, 1-(1H-Imidazol-4-yl)-7-phenylheptan-4-one]	0.02 µM

Second part, the molecule after the results:

Ki	SMILES
0.011 µM	S=C(CCC1CCCC1)NCCCc1c[nH]cn1 [Example 22, N-(3-(1H-Imidazol-4-yl)propyl)-3-cyclopentylpropanethioamide]
0.038 µM	O=[N+]([O-])c1ccc(NCCc2c[nH]cn2)nc1 [Example 94, 2-{[2-(1H-Imidazol-4-yl)ethyl]amino}-5-nitropyridine]
0.02 µM	N#CN=C(NCCCc1cnc[nH]1)NCC1CCCCC1 [Example 51, N-Cyano-N'-[3-(1H-imidazol-4-yl)propyl]-N"-cyclohexylmethylguanidine]
0.018 µM	Clc1ccc(COCCCc2c[nH]cn2)cc1 [Example 86, (4-Chlorophenyl)methyl 3-(1H-imidazol-4-yl)propyl ether]
0.042 µM	O=C(CCC1CCCC1)NC/C=C/c1c[nH]cn1 [Example 19, (E)-N-(3-(1H-Imidazol-4-yl)allyl)-3-cyclopentylpropanamide]
0.003 µM	O=C(CCC1CCCC1)OCCCc1c[nH]cn1 [Example 24, 3-(1H-Imidazol-4-yl)propyl ester of 3-cyclopentylpropanoic acid]
0.38 µM	c1ccc2sc(NCCc3c[nH]cn3)nc2c1 [Example 91, 2-{[2-(1H-Imidazol-4-yl)ethyl]amino}benzothiazole]

Same assay, conditions: read-out: Apparent dissociation constant (Ki) as antagonist of histamine on the H3 receptors of the brain of the rat; rat cerebral cortex sections; exogenous histamine 1 μM; Ki calculated from IC50 according to Cheng and Prusoff

SMILES	Ki
CN(Cc1ccccc1)C(=O)OCCCc1c[nH]cn1 [Example 83, 3-(1H-Imidazol-4-yl)propyl N-benzyl-N-methylcarbamate]	0.042 µM
O=C(NC(=O)c1ccccc1)OCCCc1c[nH]cn1 [Example 55, 3-(1H-Imidazol-4-yl)propyl N-benzoylcarbamate]	0.095 µM
O=C(Nc1ccccc1)OCCCc1c[nH]cn1 [Example 61, 3-(1H-Imidazol-4-yl)propyl N-phenylcarbamate]	0.014 ± 0.008 µM
O=C(Nc1ccc(F)cc1)OCCCc1c[nH]cn1 [Example 73, 3-(1H-Imidazol-4-yl)propyl N-(4-fluorophenyl)carbamate]	0.024 ± 0.004 µM

The remaining lines, values ahead:

Ki	SMILES
0.014 ± 0.006 µM	FC(F)(F)c1ccc(OCCCc2c[nH]cn2)cc1 [Example 131, 4-[3-(4-Trifluoromethylphenoxy)propyl]-1H-imidazole]
0.02 ± 0.008 µM	c1nc(CCCOCCCC2CCCCC2)c[nH]1 [Example 36, 3-Cyclohexylpropyl 3-(1H-imidazol-4-yl)propyl ether]
0.019 ± 0.009 µM	CCCc1ccc(OCCc2c[nH]cn2)cc1 [Example 117, 4-[2-(4-Propylphenoxy)ethyl]-1H-imidazole]
0.012 ± 0.003 µM	N#Cc1ccc(OCCCc2c[nH]cn2)cc1 [Example 130, 4-[3-(4-Cyanophenoxy)propyl]-1H-imidazole]
0.09 ± 0.027 µM	c1ccc2cc(OCCc3c[nH]cn3)ccc2c1 [Example 125, 4-[2-(2-Naphthyloxy)ethyl]-1H-imidazole]
0.052 µM	O=C(NCC1CC1)OCCCc1c[nH]cn1 [Example 57, 3-(1H-Imidazol-4-yl)propyl N-(cyclopropylmethyl)carbamate]
0.035 ± 0.006 µM	O=[N+]([O-])c1ccc(OCCc2c[nH]cn2)cc1 [Example 110, 4-[2-(4-Nitrophenoxy)ethyl]-1H-imidazole]
0.009 ± 0.005 µM	N#Cc1ccc(OCCc2c[nH]cn2)cc1 [Example 112, 4-[2-(4-Cyanophenoxy)ethyl]-1H-imidazole]
0.0048 ± 0.0009 µM	O=[N+]([O-])c1ccc(SCCc2c[nH]cn2)nc1 [Example 107, 2-{2-[1H-Imidazol-4-yl]ethylthio}-5-nitropyridine]
0.015 µM	O=C(NCc1ccc([N+](=O)[O-])cc1)OCCCc1c[nH]cn1 [Example 67, 3-(1H-Imidazol-4-yl)propyl N-(4-nitrobenzyl)carbamate]

Same assay, conditions: read-out: Inhibition of release by exogenous histamine

SMILES	inhibition at 1 µM
NCCc1c[nH]cn1 [histamine, reference compound]	~50%
